# Tested on: A2780CP20 tumors
# Assay: Therapeutic efficacy in A2780CP20 tumor-bearing nude mice
# Type: in vivo
# Conditions: siRNA-DOPC 5 μg siRNA/injection, CIS 160 μg/injection, i.p. once a week for 4 weeks
# Description: c-MYC was overexpressed in cells with low c-MYC levels (A2780) (FIG. 16A). The rate of cell proliferation of these cells were higher compared with empty vectors (FIG. 16B). The effect of nanoliposomal-c-MYC-siRNA was tested on target depletion, and therapy efficacy. Nude mice were injected intraperitoneally (i.p.) with A2780CP20 cells. A nude mice-bearing tumors were injected i.p. with nanoliposomal siRNAs. Seven days post-injection, mice were sacrificed and the tumors were dissected. As shown is FIG. 18A, the anti-tumor effects of nanoliposomal-c-MYC-siRNA as compared to C-siRNA were tested in tumor-bearing mice. […] All nanoliposomal-c-MYC-siRNAs and CIS treatments were injected i.p. once a week for 4 weeks. In vitro experiments were repeated in HEYA8 ovarian cancer cells which express high c-MYC levels (FIG. 19A-19D). Additional liposomal c-MYc-siRNA formulation was performed (FIG. 20A-20D) and FIGS. 22 and 23). […]
# As shown in FIG. 16A-16B the directed effect effects of c-MYC overexpression in ovarian cancer cells. […] Cell viability was calculated. […]
# DOPC-PEG-cholesterol-based nanoliposomes were used for in vivo c-MYC-siRNA delivery. First, we assessed whether the c-MYC silencing in vivo. […] Tumor weight and number of nodules were assessed in five treatment groups (10 mice each): (a) C-siRNA, (b) cisplatin (CIS) alone, (c) c-MYC-siRNA, (d) C-siRNA plus CIS, and (e) c-MYC-siRNA plus CIS. […]
structure (smiles),measurement,value
"N.N.[Cl][Pt][Cl] [CIS, cisplatin]",tumor weight / tumor growth,did not induce a significant effect on tumor growth
